From article PMC5559104, “Heat shock protein 90 localizes to the surface and augments virulence factors of Cryptococcus neoformans” (PLoS Neglected Tropical Diseases, 2017)

Key:
[1] = molecular target: T1, CnHsp90 (heat shock protein 90) (Cryptococcus neoformans, UniProt J9VVA4); assay: intrinsic tryptophan fluorescence quenching; also inhibits ATPase activity of the purified protein (IC50 […] at […]°C, […] at […]°C); format: binding
T1 construct: gene CNAG_06150; recombinant CnHsp90 6x-His tag fusion protein (2157 bp amplified product in pRSET-A)

[2] = molecular target: T1, CnHsp90 (heat shock protein 90); assay: intrinsic tryptophan fluorescence quenching; also hydrolysis of γ-32P-ATP (Km […] at […]°C, […] at […]°C); format: binding

T1 sequence (J9VVA4 entry or part of it): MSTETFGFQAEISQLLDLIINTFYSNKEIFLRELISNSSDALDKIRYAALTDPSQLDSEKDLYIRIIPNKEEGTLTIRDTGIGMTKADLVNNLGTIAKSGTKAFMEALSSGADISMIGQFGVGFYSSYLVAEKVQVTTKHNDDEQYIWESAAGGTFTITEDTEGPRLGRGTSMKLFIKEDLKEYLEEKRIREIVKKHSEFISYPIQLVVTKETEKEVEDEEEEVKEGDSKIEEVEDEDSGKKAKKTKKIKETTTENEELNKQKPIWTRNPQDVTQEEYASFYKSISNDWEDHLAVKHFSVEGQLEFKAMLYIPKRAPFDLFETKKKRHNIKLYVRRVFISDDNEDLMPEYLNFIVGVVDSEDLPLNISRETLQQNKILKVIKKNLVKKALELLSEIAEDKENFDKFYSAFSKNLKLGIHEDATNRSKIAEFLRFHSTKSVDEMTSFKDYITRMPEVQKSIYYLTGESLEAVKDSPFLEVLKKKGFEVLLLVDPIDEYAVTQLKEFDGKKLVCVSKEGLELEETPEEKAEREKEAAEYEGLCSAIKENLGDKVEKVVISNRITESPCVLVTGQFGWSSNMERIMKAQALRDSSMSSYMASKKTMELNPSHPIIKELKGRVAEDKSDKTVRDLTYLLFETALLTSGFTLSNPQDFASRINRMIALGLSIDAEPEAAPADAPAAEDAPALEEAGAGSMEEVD

Compound: C=CCNC1=C2C[C@@H](C)C[C@H](OC)[C@H](O)[C@@H](C)/C=C(\C)[C@H](OC(N)=O)[C@@H](OC)/C=C\C=C(/C)C(=O)NC(=CC1=O)C2=O [17-AAG]
- Kd [1]: 12.9 µM

Compound: Nc1ncnc2c1ncn2[C@@H]1O[C@H](COP(=O)(O)OP(=O)(O)OP(=O)(O)O)[C@@H](O)[C@H]1O [ATP]
- Kd [2]: 497 µM
